In patent US8383852B2, “Compounds having a cyclic moiety and compositions for delivering active agents” (Emisphere Technologies, Inc., priority 2007, dated 2013):

System: male, Sprague-Dawley rats
Test: Oral delivery of insulin in rats: change in whole blood glucose after insulin plus delivery agent
Assay type: in vivo, rat
Conditions: oral gavage
Experimental: Human recombinant insulin (ICN Biomedicals, Aurora, Ohio) was dissolved in deionized water (ph ˜6.5) to obtain stock insulin solutions having a concentration of 15 mg/ml. 3-[4-(cyclopropylmethoxy)phenyl]propanoic acid (Emisphere Technologies, Tarrytown, N.Y.) was dissolved in deionized water to obtain a 200 mg/ml delivery agent solution. The free acid form of delivery agent as converted to the sodium salt by adding one equivalent of sodium hydroxide. Solutions were vortexted, sonicated, and heated. If necessary, additional sodium hydroxide was added in μl quantities to achieve uniform solubility in the delivery agent solutions. Solutions were adjusted to a pH of 3.5-8.5 by the addition of either hydrochloric acid or sodium hydroxide, as appropriate. The insulin stock solution was then added to the delivery agent solutions to obtain an administration solution ultimately having an insulin concentration of 0.5 mg/ml. After solubilization and drug addition, administration solutions were brought to a final volume by the addition of deionized water.
Insulin was administered to male, Sprague-Dawley rats either alone or in combination with delivery agent by oral gavage (PO). Typically, rats were fasted for 18-24 hours prior to dosing. A Rusch 8 French catheter was cut to 11 cm in length and adapted to fit a 1 ml syringe. The syringe was filled with dosing solution and the catheter was inserted into the rat mouth and fed down the esophagus (10.0 cm). The dosing solution was delivered by pressing the syringe plunger while holding the rat in an upright position. The doses of delivery agent and
[…] The dose volume was 1 ml/kg. The weight of the rats in this invention ranges from 250 to 300 grams. The rat was weighted prior to the test and the dose volume was adjusted accordingly.
Immediate to each blood sampling point, rats were exposed briefly (˜10 seconds) to carbon dioxide until prostrate. A 77-mm capillary tube was inserted into the retroorbital sinus. Typically, blood samples were collected prior to dosing (time=0) and at 15, 30, 45, and 60 minutes after dosing.
To determine the pharmacodynamic response, a hand-held glucometer (OneTouch Ultra, LifeScan—Johnson & Johnson, New Brunswick, N.J.) was used to measure whole blood glucose after administration of insulin or insulin and delivery agent. After discarding the first drop of blood, a small sample (˜5-10 μls) was touched to the glucometer test strip (OneTouch Ultra, LifeScan) and a blood glucose reading was generated by the meter. Typically, samples were collected prior to dosing (time 0) and at 15, 30, 45, and 60 minutes after dosing.

[1] = 15 min., insulin/delivery agent = 0.5 mg/200 mg per kg
[2] = 30 min., insulin/delivery agent = 0.5 mg/200 mg per kg
[3] = 45 min., insulin/delivery agent = 0.5 mg/200 mg per kg
[4] = 60 min., insulin/delivery agent = 0.5 mg/200 mg per kg
[5] = time 0, insulin/delivery agent = 0.5 mg/200 mg per kg

For COc1cc(CC(=O)O)ccc1OC1CCCC1 [Compound 7, [4-(cyclopentyloxy)-3-methoxyphenyl]acetic acid], the “Percent change in whole blood glucose from baseline (negative = reduction)” value (“Percent change … (negative = reduction)” for short) [1] was −7.15%, the “Percent change … (negative = reduction)” value [2] was −17.37% and the “Percent change … (negative = reduction)” value [3] was −12.75%. The “Percent change … (negative = reduction)” value [4] was −12.77% and the “Percent change … (negative = reduction)” value [5] was 11.87%.

In the case of COc1cc(CC(=O)O)ccc1OCC1CC1 [Compound 8, [4-(cyclopropylmethoxy)-3-methoxyphenyl]acetic acid], the “Percent change … (negative = reduction)” value [1] is reported as −1.61%, the “Percent change … (negative = reduction)” value [2] is reported as −14.21% and the “Percent change … (negative = reduction)” value [3] is reported as −16.12%. The “Percent change … (negative = reduction)” value [4] was −18.19% and the “Percent change … (negative = reduction)” value [5] was 18.75%.

With O=C(O)c1ccc(OCC2CCC2)cc1 [Compound 2, 4-(cyclobutylmethoxy)benzoic acid] the “Percent change … (negative = reduction)” value [1] was −20.04%, the “Percent change … (negative = reduction)” value [2] was −32.2% and the “Percent change … (negative = reduction)” value [3] was −32.51%. For the same molecule, the “Percent change … (negative = reduction)” value [4] was −19.95% and the “Percent change … (negative = reduction)” value [5] was 7.51%.

For O=C(O)Cc1ccc(OCC2CC2)cc1 [Compound 5, [4-(cyclopropylmethoxy)phenyl]acetic acid], the “Percent change … (negative = reduction)” value [1] was −17.53%, the “Percent change … (negative = reduction)” value [2] was −26.944% and the “Percent change … (negative = reduction)” value [3] was −22.92%. The “Percent change … (negative = reduction)” value [4] was −18.62% and the “Percent change … (negative = reduction)” value [5] was −1.91%.

In the case of O=C(O)c1ccccc1OC1CCCC1 [Compound 10, 2-(cyclopentyloxy)benzoic acid], the “Percent change … (negative = reduction)” value [1] is reported as −6.94%, the “Percent change … (negative = reduction)” value [2] is reported as −25.22% and the “Percent change … (negative = reduction)” value [3] is reported as −29.27%. The “Percent change … (negative = reduction)” value [4] was −29.91% and the “Percent change … (negative = reduction)” value [5] was “+16.39%”.

With O=C(O)CCc1ccc(OCC2CC2)cc1 [Compound 1, 3-[4-(cyclopropylmethoxy)phenyl]propanoic acid] the “Percent change … (negative = reduction)” value [1] was −17.26%, the “Percent change … (negative = reduction)” value [2] was −38.35% and the “Percent change … (negative = reduction)” value [3] was −43.75%. For the same molecule, the “Percent change … (negative = reduction)” value [4] was −42.48% and the “Percent change … (negative = reduction)” value [5] was −4.64%.

O=C(O)c1ccccc1OCC1CCC1 [Compound 6, 2-(cyclobutylmethoxy)benzoic acid] was tested, and the “Percent change … (negative = reduction)” value [1] was −9.25%, the “Percent change … (negative = reduction)” value [2] was −20.51% and the “Percent change … (negative = reduction)” value [3] was −2.61%. The “Percent change … (negative = reduction)” value [4] was −2.75% and the “Percent change … (negative = reduction)” value [5] was 6.37%.

O=C(O)c1ccccc1OCC1CC1 [Compound 9, 2-(cyclopropylmethoxy)benzoic acid] was tested, and the “Percent change … (negative = reduction)” value [1] was −1.29%, the “Percent change … (negative = reduction)” value [2] was −6.99% and the “Percent change … (negative = reduction)” value [3] was −11.40%. For the same molecule, the “Percent change … (negative = reduction)” value [4] was −11.75% and the “Percent change … (negative = reduction)” value [5] was −1.59%.

With O=C(O)c1ccc(OCC2CC2)cc1 [Compound 4, 4-(cyclopropylmethoxy)benzoic acid] the “Percent change … (negative = reduction)” value [1] was −11.80%, the “Percent change … (negative = reduction)” value [2] was −32.15% and the “Percent change … (negative = reduction)” value [3] was −21.14%. For the same molecule, the “Percent change … (negative = reduction)” value [4] was −16.78% and the “Percent change … (negative = reduction)” value [5] was 1.72%.

With O=C(O)c1ccccc1OCC1CCCCC1 [Compound 11, 2-(cyclohexylmethoxy)benzoic acid] the “Percent change … (negative = reduction)” value [1] was −4.82%, the “Percent change … (negative = reduction)” value [2] was −6.23% and the “Percent change … (negative = reduction)” value [3] was −19.71%. The “Percent change … (negative = reduction)” value [4] was −19.54% and the “Percent change … (negative = reduction)” value [5] was −1.27%.

In the case of COc1cc(CC(=O)O)ccc1OCC1CCC1 [Compound 3, [4-(cyclobutylmethoxy)-3-methoxyphenyl]acetic acid], the “Percent change … (negative = reduction)” value [1] is reported as −15.04%, the “Percent change … (negative = reduction)” value [2] is reported as −22.90% and the “Percent change … (negative = reduction)” value [3] is reported as −21.04%. For the same molecule, the “Percent change … (negative = reduction)” value [4] was −19.74% and the “Percent change … (negative = reduction)” value [5] was 6.88%.
